Measured values from ChEMBL document CHEMBL2029313, “Design, synthesis and biological evaluation of potent NAD+-dependent DNA ligase inhibitors as potential antibacterial agents. Part I: aminoalkoxypyrimidine carboxamides” (Bioorg Med Chem Lett, 2012).
Converted amounts (≈) assume the structure as drawn.

Assays:
[1] = Inhibition of Escherichia coli NAD+-dependent DNA ligase
[2] = molecular target: DNA ligase 1 (Homo sapiens, UniProt P18858); experiment: Inhibition of human ATP-dependent DNA ligase 1
[3] = test system: Escherichia coli; experiment: Antibacterial activity against efflux-deficient Escherichia coli 1260 expressing transducant lig251 gene encoding temperature sensitive ligA; assay type: functional
[4] = test system: Escherichia coli; experiment: Antibacterial activity against TolC-positive Escherichia coli 1201 expressing lig251 gene; assay type: functional
[5] = test system: Escherichia coli; experiment: Antibacterial activity against wild-type TolC-positive Escherichia coli 1410 expressing ligA gene; assay type: functional
[6] = test system: Staphylococcus aureus; experiment: Antibacterial activity against Staphylococcus aureus ATCC 29213; assay type: functional
[7] = test system: Streptococcus pneumoniae; experiment: Antibacterial activity against Streptococcus pneumoniae ATCC 10015; assay type: functional
[8] = test system: Haemophilus influenzae; experiment: Antibacterial activity against Haemophilus influenzae ATCC 51907; assay type: functional

DNA ligase 1, sequence (P18858 whole entry): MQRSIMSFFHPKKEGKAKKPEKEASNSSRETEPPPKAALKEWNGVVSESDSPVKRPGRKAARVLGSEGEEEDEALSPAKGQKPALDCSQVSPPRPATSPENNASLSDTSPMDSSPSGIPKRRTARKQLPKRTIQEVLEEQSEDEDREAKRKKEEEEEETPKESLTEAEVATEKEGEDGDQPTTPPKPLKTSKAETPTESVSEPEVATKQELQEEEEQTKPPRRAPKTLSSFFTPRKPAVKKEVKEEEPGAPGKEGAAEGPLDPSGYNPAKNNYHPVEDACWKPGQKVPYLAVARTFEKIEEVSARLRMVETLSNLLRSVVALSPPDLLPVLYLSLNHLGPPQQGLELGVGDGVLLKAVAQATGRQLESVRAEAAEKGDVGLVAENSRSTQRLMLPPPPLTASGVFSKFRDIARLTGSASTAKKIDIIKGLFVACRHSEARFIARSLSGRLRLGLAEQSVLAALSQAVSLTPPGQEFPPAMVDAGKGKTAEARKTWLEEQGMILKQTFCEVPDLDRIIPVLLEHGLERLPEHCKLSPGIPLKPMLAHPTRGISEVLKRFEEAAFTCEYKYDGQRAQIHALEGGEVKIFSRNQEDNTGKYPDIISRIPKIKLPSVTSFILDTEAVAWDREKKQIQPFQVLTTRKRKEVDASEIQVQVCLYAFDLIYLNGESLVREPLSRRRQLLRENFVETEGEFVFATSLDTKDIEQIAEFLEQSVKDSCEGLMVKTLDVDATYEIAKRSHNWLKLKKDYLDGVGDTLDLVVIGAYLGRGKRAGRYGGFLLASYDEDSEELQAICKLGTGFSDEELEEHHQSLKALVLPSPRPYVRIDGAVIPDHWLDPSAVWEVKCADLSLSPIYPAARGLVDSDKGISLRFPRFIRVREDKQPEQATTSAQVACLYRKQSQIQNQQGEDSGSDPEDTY

Row | Compound | IC50 [1] [nM] | IC50 [2] [nM] | MIC [3] [µM] | MIC [4] [µM] | MIC [5] [µM] | MIC [6] [µM] | MIC [7] [µM] | MIC [8] [µM]
1 | C[C@H]1CC[C@H](Oc2nc(N)c(C(N)=O)c(O[C@H]3CCC[C@@H]3O)n2)CC1 | 180 | > 55000 | 1.2 (≈ 0.421 µg/mL) | > 100 | > 100 | 100 (≈ 35 µg/mL) | 75 (≈ 26.3 µg/mL) | 12.5 (≈ 4.38 µg/mL)
2 | CC(C)Oc1ncc(C(N)=O)c(N)n1 | 410 | > 55000 | 15 (≈ 2.94 µg/mL) | 27 (≈ 5.3 µg/mL) | > 100 | > 100 | – | –
3 | NC(=O)c1cnc(NC2CCCC2)nc1N | > 55000 | – | > 100 | > 100 | > 100 | > 100 | – | –
4 | COc1cc(NC[C@H]2CCCC(Oc3nc(OC4CCCC4)nc(N)c3C(N)=O)C2)cc(OC)c1 (stereo partly drawn) | 80 | > 55000 | 1.6 (≈ 0.777 µg/mL) | > 100 | > 100 | > 100 | – | –
5 | NC(=O)c1cnc(SC2CCCC2)nc1N | 6900 | – | 33 (≈ 7.86 µg/mL) | > 100 | > 100 | > 100 | – | –
6 | Nc1nc(OC2CCCC2)ncc1S(N)(=O)=O | > 40000 | – | > 100 | > 100 | > 100 | > 100 | – | –
7 | Nc1nc(OCC2CCCC2)ncc1C(=O)NCC1CCCO1 (stereo not drawn) | > 55000 | – | > 100 | > 100 | > 100 | > 100 | – | –
8 | NC(=O)c1c(N)nc(OC2CCCC2)nc1O[C@H]1CCCC[C@@H]1CO | 14 | > 55000 | 1.2 (≈ 0.421 µg/mL) | > 100 | > 100 | 100 (≈ 35 µg/mL) | – | –
9 | NC(=O)c1c(N)nc(OC2CCCC2)nc1O[C@H]1CCCC[C@@H]1O | 46 | > 55000 | 1.6 (≈ 0.538 µg/mL) | > 100 | > 100 | 45 (≈ 15.1 µg/mL) | – | –
10 | CC(Oc1ncc(C(N)=O)c(N)n1)C(=O)O (stereo not drawn) | > 10000 | > 55000 | > 100 | > 100 | > 100 | > 100 | – | –
11 | N=C(N)c1cnc(OC2CCCC2)nc1N | 8100 | – | 100 (≈ 22.1 µg/mL) | > 100 | > 100 | > 100 | – | –
12 | NC(=O)c1cnc(OCCF)nc1N | 920 | > 55000 | 28 (≈ 5.6 µg/mL) | 23 (≈ 4.6 µg/mL) | > 100 | > 100 | – | –
13 | COCCNc1nc(OCC2CCCC2)ncc1C(N)=O | > 55000 | – | > 100 | > 100 | > 100 | > 100 | – | –
14 | NC(=O)c1cnc(OC2CCCC2)nc1N | 610 | > 55000 | 9.4 (≈ 2.09 µg/mL) | 100 (≈ 22.2 µg/mL) | > 100 | > 100 | – | –
15 | Nc1nc(OCC2CCCC2)ncc1C(=O)NCCCN1CCCC1=O | > 55000 | – | > 100 | > 100 | > 100 | > 100 | – | –
16 | NC(=O)c1c(N)nc(OC2CCCC2)nc1OC1CCCCC1F (stereo not drawn) | 19 | > 55000 | 1.2 (≈ 0.406 µg/mL) | > 100 | > 100 | > 100 | – | –
17 | CC(C)Oc1nc(N)c(C(N)=O)c(OC2CCCCC2)n1 | 61 | > 55000 | 6.3 (≈ 1.85 µg/mL) | > 100 | > 100 | > 100 | – | –

Continued, values first:

Row | IC50 [1] [nM] | IC50 [2] [nM] | MIC [3] [µM] | MIC [4] [µM] | MIC [5] [µM] | MIC [6] [µM] | MIC [7] [µM] | MIC [8] [µM] | Compound
18 | 120 | > 55000 | 9.4 (≈ 3.03 µg/mL) | > 100 | > 100 | > 100 | – | – | NC(=O)c1c(N)nc(OC2CCCC2)nc1O[C@H]1CCC[C@H]1O
19 | > 55000 | – | > 100 | > 100 | > 100 | > 100 | – | – | CNc1nc(OCC2CCCC2)ncc1C(N)=O
20 | 560 | > 55000 | 9.8 (≈ 2.32 µg/mL) | > 100 | > 100 | > 100 | – | – | NC(=O)c1cnc(OC2CCCCC2)nc1N
21 | 630 | > 55000 | 4.7 (≈ 1.39 µg/mL) | > 100 | > 100 | > 100 | – | – | CC(C)Oc1nc(N)c(C(N)=O)c(O[C@H]2CCC[C@@H]2O)n1
22 | > 55000 | – | > 100 | > 100 | > 100 | > 100 | – | – | NC(=O)c1cnc(CCC2CCCC2)nc1N
23 | 64 | > 55000 | 9.4 (≈ 3.12 µg/mL) | > 100 | > 100 | > 100 | – | – | NC(=O)c1c(N)nc(OC2CCCC2)nc1Oc1ccccc1F
24 | 240 | > 55000 | 3.1 (≈ 0.776 µg/mL) | > 100 | > 100 | > 100 | – | – | C[C@H]1CCCC[C@H]1Oc1ncc(C(N)=O)c(N)n1
25 | 78 | > 55000 | 1.2 (≈ 0.464 µg/mL) | > 100 | > 100 | 83 (≈ 32.1 µg/mL) | – | – | NC(=O)c1c(N)nc(OC2CCCC2)nc1Oc1cccc(CCC(=O)O)c1
